Measurements: patent US20150133524A1, “PYRUVATE DEHYROGENASE KINASES AS THERAEUTIC TARGETS FOR CANCER AND ISCHEMIC DISEASES” (THE JOHNS HOPKINS UNIVERSITY, priority 2004, published 2015)
Like-named read-outs stand apart in the source and are kept apart here.

Legend:
PDK1 = experiment: Immunoblot of PDK1 protein expression in P493-6 cells; assay type: cell-based, human; details: for PDK1 expression: P493-6 cells after electroporation with 100 nM siRNA, FIG. 4A
P493-6 cells = experiment: Growth curves of P493-6 cells electroporated with siRNA; assay type: cell-based, human; details: 100 nM siRNA electroporated; hypoxia (0.1% O2); versus scrambled control siRNA; FIG. 4B
Experimental: siRNA targeting human PDK1 was designed and purchased from Dharmacon Research Inc (Lafayette, Colo.). 3×10^6 P493-6 cells were electroporated (1500 uF and 240 volts) with 100 nM of PDK1 siRNA (5′-CUACAUGAGUCGCAUUUCAdTdT-3′) (SEQ ID NO: 1). or scrambled control siRNA (5′-CACGCUCGGUCAAAAGGUUdTdT-3′) (SEQ ID NO: 7). in a 4 mm cuvette (BTX) using a Gene Pulser Xcell (Bio-Rad, Hercules, Calif.). The following day, 5×10^5 viable cells were subjected to hypoxic exposure (0.1% O2). At indicated times, viable cells were counted for growth curve, and the cellular proteins were harvested for Western blot analysis.

Hif1a−/− MEFs [1] = experiment: Cell proliferation assay (viable cell count) of Hif1a−/− MEFs
Hif1a−/− MEFs [2] = system: Hif1a−/− MEFs

## 5′-CACGCUCGGUCAAAAGGUUdTdT-3′ (dTdT overhang, complementary strand not cited, chemistry not fully specified) [scrambled control siRNA]
PDK1
  PDK1 expression: did not reduce PDK1 expression

## 5′-CUACAUGAGUCGCAUUUCAdTdT-3′ (dTdT overhang, complementary strand not cited, chemistry not fully specified) [PDK1 siRNA, siRNA targeting human PDK1, designed and purchased from Dharmacon]
P493-6 cells
  growth of P493-6 cells in hypoxia: impaired
PDK1
  PDK1 expression: reduced

## [Cl-].[Cl-].[Co+2] [CoCl2]
PDK1
  PDK1 levels: increased

## C=C(C)[C@H]1Cc2c(ccc3c2O[C@@H]2COc4cc(OC)c(OC)cc4[C@@H]2C3=O)O1 [Rotenone, rotenone]
Hif1a−/− MEFs [1]; 0.1 μM rotenone, hypoxic (0.5% O2), FIG. 3D
  rescue (growth) of hypoxic Hif1a−/− mouse embryo fibroblasts: able to rescue
Hif1a−/− MEFs [1]; 0.1 μM rotenone, normoxic (20% O2), FIG. 3D
  proliferation of normoxic Hif1a−/− MEFs: inhibited proliferation

## CO/C(=C/C(N)=O)[C@H](C)[C@H](/C=C/c1csc(-c2csc([C@@H](C)/C=C/C=C/C(C)C)n2)n1)OC [myxothiazol]
Hif1a−/− MEFs [1]; both normoxic and hypoxic cells
  toxicity to normoxic and hypoxic Hif1a−/− MEFs: toxic

## antimycin A
Hif1a−/− MEFs [2]
  toxicity to normoxic and hypoxic Hif1a−/− MEFs: toxic
